The source of these data is patent EP2508526A1, “Spiroalkene carboxamide derivatives and their use as chemokine receptor modulators” (Ares Trading SA, priority 2011, dated 2012).

Assay [1] has as its target T1, hCCR2b (Homo sapiens, UniProt P41597).
T1 sequence (P41597 1-360 isoform P41597-2): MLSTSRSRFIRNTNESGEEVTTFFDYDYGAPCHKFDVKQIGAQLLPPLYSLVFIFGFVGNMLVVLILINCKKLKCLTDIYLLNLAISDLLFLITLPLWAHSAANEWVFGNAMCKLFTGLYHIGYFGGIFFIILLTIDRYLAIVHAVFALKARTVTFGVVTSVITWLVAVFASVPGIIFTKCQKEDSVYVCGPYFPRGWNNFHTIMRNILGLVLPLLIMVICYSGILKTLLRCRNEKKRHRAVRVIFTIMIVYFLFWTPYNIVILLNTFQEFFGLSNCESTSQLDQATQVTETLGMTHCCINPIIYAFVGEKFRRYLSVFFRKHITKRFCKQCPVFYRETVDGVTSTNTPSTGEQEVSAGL
Kind of assay: CCR2 binding assay ([125I]MCP-1, SPA, CHO cell membranes). To be noted: membranes from CHO cells expressing hCCR2b, 50 pM [125I]MCP-1; read-out: Binding hCCR2 (Ki). More on the design: expressed in transfected cells; host or cells: CHO cells (membrane preparation). In short, it runs like this: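 CHO membranes expressing hCCR2b (1–5 µg/well) with 50 pM [125I]MCP-1 and WGA SPA beads in 50 mM HEPES pH 7.4, 5 mM MgCl2, 1 mM CaCl2, 0.1% BSA, 1% DMSO; 90 min RT with agitation. Bound counts on scintillation counter; nonspecific defined by 1000-fold excess unlabeled compound.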

Assay [2] concerns the target T1, hCCR2b. Kind of assay: Chemotaxis of L1.2-hCCR2b cells towards MCP-1 P8A. The format is cell-based. On the set-up: expressed in transfected cells; host or cells: L1.2 cells (murine pre-B cell line). To be noted: MCP-1 P8A at EC80, 4-hours incubation. The source says: L1.2 cells, a murine pre-LB cellline, were transfected with the human CCR2b receptor for use in the transmigration of L1.2 hCCR2b on the chemotaxis system: ChemotX® provided by Neuroprobes (8µm pore size). Monocyte Chemoattractant Protein-1 (MCP-1) stimulation leads to activate the CCR2 receptor and inititates a cascade of events including chemotaxis. MCP-1 ligand will be replaced by MCP-1 P8A protein with genetic modifications to prevent the oligomerization of the protein. L1.2-hCCR2b are incubated in white RPMI 1640, 5% v/v Heat inactivated FCS, 1% v/v penicillin-streptomycin supplemented with 5 mM Butyrate overnight to enhance receptor expression level at the cell surface. L1.2-hCCR2b cells and compounds in DMSO (1% final) are preincubated 15 min in chemotaxis medium and placed in the Upper Chamber of the chemotaxis system. The MCP-1 P8A initially present at its EC80 (concentration of MCP-1 P8A which allows 80% of cell migration) in the Lower Chamber (with compounds to avoid any compound gradient) diffuses through the pores of the membrane and interacts with the CCR2 receptor of cells present in the upper chamber. The tested compounds can also potentially interact with CCR2 receptor and therefore inhibit the migration of the cells from the Upper Chamber to the Lower Chamber. After a 4-hours incubation time at 37°C, 5% CO2, a quantification of the cells which have migrated is performed using the Cyquant (Invitrogen) and a fluorescent reader as a Fluostar (exc: 485nm; emm: 520 nm). Specific migration is assessed by substracting the basal migration of cells without any stimulation. Chemotaxis data were analyzed using the Genedata Screener® software.

Where a name gives a salt, the structure may show the parent alone.

Regarding `CC1=C(C(=O)N2CCc3ccc(C(F)(F)F)cc3C2)C2(CCN(C3CCOCC3)CC2)OC1=O` [Compound 26, 3-methyl-8-(tetrahydro-2H-pyran-4-yl)-4-{[7-(trifluoromethyl)-3,4-dihydroisoquinolin-2(1H)-yl]carbony}-1-oxa-8-azaspiro[4.5]dec-3-en-2-one], the inhibitory constant (Ki) at hCCR2b [1] and at hCCR2b [2] was under 50 nM each time.

On to `CC1=C(C(=O)N2CCc3ccc(C(F)(F)F)cc3C2)C2(CCN(C(C)C)CC2)OC1=O` [Compound 62, 8-isopropyl-3-methyl-4-{[7-(trifluoromethyl)-3,4-dihydroisoquinolin-2 (1H)-yl]carbonyl}-1-oxa-8-azaspiro[4.5]dec-3-en-2-one], for which the Ki on hCCR2b [1] and on hCCR2b [2] was under 50 nM in each case.

As for `CC1=C(C(=O)N2COc3ccc(C(F)(F)F)cc3C2)C2(CCN(C(C)C)CC2)OC1=O` [Compound 66, 8-isopropyl-3-methyl-4-{[6-(trifluoromethyl)-2H-1,3-benzoxazin-3(4H)-yl]carbonyl}-1-oxa-8-azaspiro[4.5]dec-3-en-2-one], the Ki at hCCR2b [1] and on hCCR2b [2] was under 50 nM throughout.

On to `CCN1CCC2(CC1)OC(=O)C(C)=C2C(=O)N1CCN(c2cccc(C(F)(F)F)c2)CC1` [Compound 74, 8-ethyl-3-methyl-4-({4-[3-(trifluoromethyl)phenyl]piperazin-1-yl}carbonyl)-1-oxa-8-azaspiro[4.5]dec-3-en-2-one], for which the Ki on hCCR2b [1] and on hCCR2b [2] was under 50 nM each time.

For `CCN1CCC2(CC1)OC(=O)C(C)=C2C(=O)N1CCc2ccc(C(F)(F)F)cc2C1` [Compound 97, 8-ethyl-3-methyl-4-{[7-(trifluoromethyl)-3,4-dihydroisoquinolin-2(1H)-yl]carbonyl}-1-oxa-8-azaspiro[4.5]dec-3-en-2-one], the Ki at hCCR2b [1] and at hCCR2b [2] was under 50 nM each time.

As for `CC1=C(C(=O)N2CCN(c3cccc(C(F)(F)F)c3)CC2)C2(CCN(CCc3ccc(F)cc3)CC2)OC1=O` [Example 3, 8-[2-(4-fluorophenyl)ethyl]-3-methyl-4-({4-[3-(trifluoromethyl)phenyl]piperazin-1-yl}carbonyl)-1-oxa-8-azaspiro[4.5]dec-3-en-2-one], the Ki at hCCR2b [1] was under 50 nM.

On to `COCCN1CCC2(CC1)OC(=O)C(C)=C2C(=O)N1CCN(c2cccc(C(F)(F)F)c2)CC1` [Example 4, 8-(2-methoxyethyl)-3-methyl-4-({4-[3-(trifluoromethyl)phenyl]piperazin-1-yl}carbonyl)-1-oxa-8-azaspiro[4.5]dec-3-en-2-one], for which the Ki at hCCR2b [1] was under 50 nM.

As to `CC1=C(C(=O)N2CCN(c3cccc(C(F)(F)F)c3)CC2)C2(CCN(CCCc3ccccc3)CC2)OC1=O` [Example 5, 3-methyl-8-(3-phenylpropyl)-4-({4-[3-(trifluoromethyl)phenyl]piperazin-1-yl}carbonyl)-1-oxa-8-azaspiro[4.5]dec-3-en-2-one], the Ki on hCCR2b [1] is under 50 nM.

With `COc1ccc(CCN2CCC3(CC2)OC(=O)C(C)=C3C(=O)N2CCN(c3cccc(C(F)(F)F)c3)CC2)cc1` [Example 6, 8-[2-(4-methoxyphenyl)ethyl]-3-methyl-4-({4-[3-(trifluoromethyl)phenyl]piperazin-1-yl]carbonyl)-1-oxa-8-azaspiro[4.5]dec-3-en-2-one, dihydrochloride salt], at hCCR2b [1], the Ki is under 50 nM.
